As a reminder, the inhibition is the drop in the measured response relative to a control, in per cent. As usually defined, the EC50 is the concentration that produces a half-maximal response.

Results on 1 molecule are retold here after ChEMBL document CHEMBL4602732, “Optimizing Pyrazolopyrimidine Inhibitors of Calcium Dependent Protein Kinase 1 for Treatment of Acute and Chronic Toxoplasmosis” (J Med Chem, 2020).

Calls of active or inactive are those of the source. The calls are words filed in the database; no cut-off is given here. Some results are limits rather than exact numbers.

The subject of data set [1] is Toxoplasma gondii. Put plainly: Antiparasitic activity against type 1 Toxoplasma gondii RH tachyzoites infected in CD1 mouse assessed as reduction in mouse death at 60 mg/kg, po administered once daily via gavage for 7 days followed by lung and brain isolation on 15 days post-infection and co-culture with naive CD1 mouse. In kind it is functional, organism-based.
Data set [2] has as its system Toxoplasma gondii. Put plainly: Protection against reactivation of type 2 Toxoplasma gondii ME49 infection in sulfadiazin-treated Ifngr1-/- CD1 mouse assessed as increase in mouse survival at 60 mg/kg, po administered twice daily via gavage for 21 days measured up to 30 days. In kind it is functional, organism-based.
The target of the next data set is MAP4K4 (Homo sapiens, UniProt O95819). Nature of the data set: Inhibition of recombinant human GST-tagged MAP4K4 catalytic domain expressed in baculovirus expression system at 1 uM by Lanthascreen assay relative to control.
The test system of data set [3] is Toxoplasma gondii. Put plainly: Antiparasitic activity against type 1 Toxoplasma gondii RH tachyzoites infected in CD1 mouse assessed as reduction in parasite expansion at 15 mg/kg, po administered four times daily via gavage for 7 days by bioluminescence assay. It is filed as functional, organism-based.
Data set [4] deals with T1, ALK5 (TGF-beta receptor type-1) (Homo sapiens, UniProt P36897).
T1 sequence (P36897 whole entry): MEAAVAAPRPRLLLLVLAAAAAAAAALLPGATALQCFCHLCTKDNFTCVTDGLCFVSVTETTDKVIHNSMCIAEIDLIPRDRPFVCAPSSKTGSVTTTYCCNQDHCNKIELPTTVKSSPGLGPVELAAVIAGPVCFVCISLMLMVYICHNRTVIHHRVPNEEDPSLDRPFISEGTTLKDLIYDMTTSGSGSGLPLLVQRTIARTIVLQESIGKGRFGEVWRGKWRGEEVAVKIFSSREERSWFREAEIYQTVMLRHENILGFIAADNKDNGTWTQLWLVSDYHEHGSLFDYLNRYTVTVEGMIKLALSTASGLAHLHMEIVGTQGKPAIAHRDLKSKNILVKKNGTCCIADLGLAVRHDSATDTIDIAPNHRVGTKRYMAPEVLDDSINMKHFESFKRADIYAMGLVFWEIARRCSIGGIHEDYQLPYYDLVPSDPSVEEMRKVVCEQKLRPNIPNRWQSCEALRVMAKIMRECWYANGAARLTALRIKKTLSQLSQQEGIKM
Nature of the data set: Inhibition of human […] N-terminal GST-tagged ALK5 (200 to 503 residues) expressed in baculovirus expression system at 1 uM by Lanthascreen assay relative to control. (In TR-FRET formats the signal depends on donor and acceptor labels being close together.)

Data set [5] deals with Toxoplasma gondii. Nature of the data set: Antiparasitic activity against type 1 Toxoplasma gondii RH tachyzoites infected in CD1 mouse assessed as reduction in parasite expansion at 30 mg/kg, po administered twice daily via gavage for 7 days by bioluminescence assay. In kind it is functional, organism-based.
Data set [6] concerns Toxoplasma gondii. Put plainly: Antiparasitic activity against type 1 Toxoplasma gondii RH tachyzoites infected in CD1 mouse assessed as reduction in parasite dissemination at 30 mg/kg, po administered twice daily via gavage for 7 days by bioluminescence assay. In kind it is functional, organism-based.
For data set [7], the system named is Toxoplasma gondii. Nature of the data set: Antiparasitic activity against type 1 Toxoplasma gondii RH tachyzoites infected in CD1 mouse assessed as reduction in parasite dissemination at 60 mg/kg, po administered once daily via gavage for 7 days by bioluminescence assay. In kind it is functional, organism-based.
Data set [8] has as its system Toxoplasma gondii. Put plainly: Antiparasitic activity against type 1 Toxoplasma gondii RH tachyzoites infected in CD1 mouse assessed as reduction in parasite expansion at 60 mg/kg, po administered once daily via gavage for 7 days by bioluminescence assay. It is filed as functional, organism-based.
Data set [9] concerns Toxoplasma gondii. Nature of the data set: Protection against reactivation of type 2 Toxoplasma gondii ME49 infection in sulfadiazin-treated Ifngr1-/- CD1 mouse assessed as reduction in parasite infection at 60 mg/kg, po administered twice daily via gavage for 8 days measured up to 30 days by luciferase reporter gene based bioluminescence assay. In kind it is functional, organism-based. On the technique in general: Reporter assays use an easily measured gene product as a stand-in for the process of interest.

Data set [10] relates to Toxoplasma gondii. Nature of the data set: Antiparasitic activity against type 1 Toxoplasma gondii RH tachyzoites infected in CD1 mouse assessed as reduction in parasite dissemination at 15 mg/kg, po administered four times daily via gavage for 7 days by bioluminescence assay. It is filed as functional, organism-based.
In data set [11] the test system is Toxoplasma gondii. Nature of the data set: Protection against reactivation of type 2 Toxoplasma gondii ME49 infection in sulfadiazin-treated Ifngr1-/- CD1 mouse assessed as reduction in serological conversion at 60 mg/kg, po administered twice daily via gavage for 21 days followed by brain isolation on 30 days post-infection and co-culture with Ifngr1-/- CD1 mouse. In kind it is functional, organism-based.

Data set [12] deals with Src (human) versus Toxoplasma gondii CDPK1. Nature of the data set: Selectivity ratio of IC50 for inhibition of human Src expressed in Escherichia coli BL21 to IC50 for inhibition of Toxoplasma gondii full-length wild-type C-terminal His-tagged CDPK1 expressed in Escherichia coli BL21(DE3)V2RpAcYc-LIC+LamP. In kind it is toxicity. As to conditions: read-out: Ratio IC50.

In data set [13] the test system is Toxoplasma gondii. Nature of the data set: Antiparasitic activity against type 1 Toxoplasma gondii RH tachyzoites infected in CD1 mouse assessed as reduction in mouse death at 60 mg/kg, po administered once daily via gavage for 7 days by bioluminescence assay. In kind it is functional, organism-based.
Data set [14] deals with Toxoplasma gondii. Put plainly: Protection against reactivation of type 2 Toxoplasma gondii ME49 infection in sulfadiazin-treated Ifngr1-/- CD1 mouse assessed as increase in weight gain at 60 mg/kg, po administered twice daily via gavage for 21 days measured up to 30 days. In kind it is functional, organism-based.
The subject of data set [15] is Toxoplasma gondii. Nature of the data set: Antiparasitic activity against type 2 Toxoplasma gondii ME49 tachyzoites infected in HFF assessed as reduction in parasite growth. It is filed as functional, organism-based.
In data set [16] the test system is Toxoplasma gondii. Put plainly: Antiparasitic activity against Toxoplasma gondii type III CTG tachyzoites infected in HFF assessed as reduction in parasite growth. It is filed as functional, organism-based.
Data set [17] has as its system Toxoplasma gondii. Put plainly: Antiparasitic activity against type 1 Toxoplasma gondii RH tachyzoites infected in CD1 mouse assessed as […] at 15 mg/kg, po administered four times daily via gavage for 7 days followed by lung and brain isolation on 15 days post-infection and co-culture with naive CD1 mouse. It is filed as functional.

Sequence of MAP4K4 (O95819 whole entry, the tested form may be a part): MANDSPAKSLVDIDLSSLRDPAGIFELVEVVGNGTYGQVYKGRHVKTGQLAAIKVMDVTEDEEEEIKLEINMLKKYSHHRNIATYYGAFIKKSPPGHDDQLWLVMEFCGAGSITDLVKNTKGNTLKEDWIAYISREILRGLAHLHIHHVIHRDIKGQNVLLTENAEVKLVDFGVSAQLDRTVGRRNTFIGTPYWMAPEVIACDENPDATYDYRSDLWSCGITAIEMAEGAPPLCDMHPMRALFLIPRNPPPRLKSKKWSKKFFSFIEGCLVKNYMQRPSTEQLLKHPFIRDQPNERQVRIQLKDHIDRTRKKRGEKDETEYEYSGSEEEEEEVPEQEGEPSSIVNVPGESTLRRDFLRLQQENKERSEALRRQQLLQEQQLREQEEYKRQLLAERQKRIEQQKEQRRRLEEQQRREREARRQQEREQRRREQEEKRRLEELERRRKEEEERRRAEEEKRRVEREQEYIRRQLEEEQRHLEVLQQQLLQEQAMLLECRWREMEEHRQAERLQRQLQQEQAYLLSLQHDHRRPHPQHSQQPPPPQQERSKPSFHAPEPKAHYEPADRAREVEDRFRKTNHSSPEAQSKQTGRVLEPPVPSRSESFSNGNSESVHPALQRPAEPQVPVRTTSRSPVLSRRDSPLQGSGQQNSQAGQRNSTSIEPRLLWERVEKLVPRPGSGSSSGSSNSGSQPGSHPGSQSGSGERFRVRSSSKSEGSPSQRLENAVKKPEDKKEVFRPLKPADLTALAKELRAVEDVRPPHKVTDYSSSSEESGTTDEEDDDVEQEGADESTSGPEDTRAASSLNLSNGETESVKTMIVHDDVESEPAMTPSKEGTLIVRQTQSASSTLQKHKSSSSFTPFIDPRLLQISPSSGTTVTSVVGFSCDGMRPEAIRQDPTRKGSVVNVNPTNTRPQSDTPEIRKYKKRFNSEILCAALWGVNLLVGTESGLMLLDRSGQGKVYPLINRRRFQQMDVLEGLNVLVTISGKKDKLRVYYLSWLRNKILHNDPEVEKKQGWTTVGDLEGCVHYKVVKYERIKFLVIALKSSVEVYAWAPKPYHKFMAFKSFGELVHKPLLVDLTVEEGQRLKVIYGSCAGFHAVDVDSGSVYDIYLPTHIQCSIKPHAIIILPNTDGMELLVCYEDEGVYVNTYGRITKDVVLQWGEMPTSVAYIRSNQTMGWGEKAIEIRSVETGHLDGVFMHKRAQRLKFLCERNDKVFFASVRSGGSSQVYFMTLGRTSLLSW

On to `Nc1ncnc2c1c(Oc1cc(C(F)(F)F)ccn1)nn2C1CC1`, for which the result in the data set on Toxoplasma gondii [1] and in the data set on Toxoplasma gondii [9] was inactive. Besides, the result in the data set on Toxoplasma gondii [2], in the data set on Toxoplasma gondii [3], in the data set on Toxoplasma gondii [5], in the data set on Toxoplasma gondii [6], in the data set on Toxoplasma gondii [7] and with Toxoplasma gondii [8] was Active. For the same molecule, the outcome with Toxoplasma gondii [10], with Toxoplasma gondii [11], with Toxoplasma gondii [13] and with Toxoplasma gondii [14] was Active. The inhibition at 1 µM (at MAP4K4; in [4]) was above 50% in each case. Besides, in data set [12], the selectivity ratio was above 1000. Moreover, the EC50 is 260 nM with Toxoplasma gondii [15] and 168 nM in the data set on Toxoplasma gondii [16]. Also, the survival at 15 mg/kg in the data set on Toxoplasma gondii [17] was found to be 20%.
